Read-outs that look alike come from different tables or passages of the source.
Key:
[1] = system: Pasteurella multocida; test: Efficacy against Pasteurella multocida infections in mice when administered by injection; assay type: in vivo, Female Swiss mice; details: for responders at 5 mg/kg / responders at 2.5 mg/kg: Pasteurella multocida, ip, read-out: Survival ratio (mice surviving / mice tested) (converted)
Experimental: The efficacy of the novel compounds against Pasteurella multocida infections in mice when administered by injection was studied.
Female Swiss mice weighing from 15 to about 20 g. were used. The test compound, 5.0 mg., was weighed out and dissolved in 0.5 ml. of dimethyl sulfoxide, and this solution was added to 9.5 ml. of sodium carboxymethylcellulose suspension. Groups of five mice each were injected intraperitoneally with 0.1 ml. each of the above-prepared test composition. This preparation gave a test rate of 2.5 mg. per kilo of body weight of mouse. The compounds were tested at 1.25, 2.5, or 5.0 per kilogram of body weight of mouse, and the test preparations for the rates of 1.25 and 5.0 mg./kg. were prepared in a similar manner. Immediately after receiving the test compound, the mice were challenged using log10 dilutions of 10^-^4, 10^-^5 and 10^-^6,of a 16 to 20-hour tryptose broth culture of Pasteurella multocida at 0.1 ml. per mouse subcutaneously. Similar groups of nontreated control mice were also challenged, the challenge being administered subcutaneously. The groups of mice were observed daily for mortality and the total mortality in treated groups compared with that which occurred in the nonmedicated control groups. Each test compound is identified by the number of the example describing its preparation.
In the chart, column 1 lists the test compound; column 2, the dosage of test compound in mg./kg. of mouse body weight; column 3, the dilution of the challenge organism; and column 4, the ratio of the number of mice surviving the test at each dosage and challenge dilution to the number of mice tested at each dosage and challenge dilution, called the survival ratio.

[2] = system: Pseudomonas sp.; test: In vitro activity against fish bacterial pathogen, standard tube dilution test (MIC); assay type: cell-based; details: tryptose broth, overnight, about 37° C., read-out: minimum inhibitory concentration (MIC)
Experimental: (§1) The in vitro activity of certain of the novel compounds of this invention against two fish bacterial pathogens was determined using tryptose broth and the standard tube dilution test system. Doubling dilutions ranging from 100.0 to 0.78 mcg./ml. of each of the test compounds were prepared in 5 ml. amounts of tryptose broth. Each tube in the series was then inoculated with one drop from a 24-hour broth culture of either Pseudomonas sp. or a strain of Aeromonas liquefaciens. The tubes were incubated overnight at about 37° C., and the minimum inhibitory concentration (MIC) determined and recorded.
(§2) Column 1 lists the test compounds identified by their operating example number; column 2 lists the MIC for Pseudomonas sp.; and column 3 lists the MIC for Aeromonas liquefaciens.

[3] = system: Aeromonas liquefaciens; test: as above; assay type: cell-based; details: Aeromonas hydrophila, read-out: minimum inhibitory concentration (MIC)
Experimental: as §1, §2

[4] = system: Treponema hyodysenteriae; test: In vitro activity against Treponema hyodysenteriae on blood agar plates (MIC); assay type: cell-based; details: for MIC: Brachyspira hyodysenteriae, 96 h, read-out: minimum inhibitory concentration (MIC); for inhibition of growth of the treponema: doubling dilutions 100 mcg./ml. to 0.39 mcg./ml.
Experimental: A number of representative compounds, namely, 5b, 8, and 15b, were tested for their in vitro activity against Treponema hyodysenteriae. The treponema were propagated on blood agar plates. Each plate which was prepared contained 20 ml. of trypticase soy agar (Baltimore Biological Laboratory [BBL]) with 5.0 g./l. of yeast extract (Difco) and 5 percent sterile defibrinated horse blood. The plates were sterile plastic 15 × 100 mm. petri plates. Incubation was carried out at 37° C. for 4 days under anaerobic conditions using the BBL Gas Pak system.
The concentrations of test compounds in this initial test were prepared in dilutions ranging from 2000 mcg./ml. to 7.8 mcg./ml. The test procedure was carried out in the following manner. Five ml. of a twenty-fold concentration in tryptose broth (Difco) of each filter-sterilized test compound dilution was mixed in a series of flasks containing 90 ml. of melted trypticase soy agar with yeast extract. Five ml. of horse blood was then added per flask. The contents of these flasks were then used to prepare a series of blood agar plates in doubling decreasing dilutions ranging from 100 mcg./ml. to 0.39 mcg./ml.
The treponema for inoculation of these plates were obtained by adding 3.0 ml. of sterile tryptose broth to the surface of a plate on which the treponema had been propagated. A sterile cotton-tipped swab was used to loosen the treponema from the agar. […] The inoculum was spread so that it covered the surface of each plate, a bent sterile plastic pipette being used for this purpose for each plate. The plates were incubated at about 36° C. for about 4 days and then examined for growth of the treponema. The minimum inhibitory concentration (MIC) of each test compound was the concentration that prevented growth of treponema.

[5] = 5.0 mg./kg. intraperitoneal, challenge dilution 10^-^4 subcutaneous
[6] = 5.0 mg./kg. intraperitoneal, challenge dilution 10^-^5 subcutaneous
[7] = 5.0 mg./kg. intraperitoneal, challenge dilution 10^-^6 subcutaneous
[8] = Aeromonas liquefaciens, tryptose broth, overnight, about 37° C.
[9] = 2.5 mg./kg. intraperitoneal, challenge dilution 10^-^4 subcutaneous
[10] = 2.5 mg./kg. intraperitoneal, challenge dilution 10^-^5 subcutaneous
[11] = 2.5 mg./kg. intraperitoneal, challenge dilution 10^-^6 subcutaneous

Row | SMILES | responders at 5 mg/kg [1, 5] | responders at 5 mg/kg [1, 6] | responders at 5 mg/kg [1, 7] | other results
1 | Cn1c([N+](=O)[O-])cnc1-c1nn(C)c2nc(C(F)(F)F)[nH]c(=O)c12 [Example 12, 1,5-Dihydro-1-methyl-3-(1-methyl-5-nitroimidazol-2-yl)-6-(trifluoromethyl)-4H-pyrazolo[3,4-d]pyrimidin-4-one] | 20% | 20% | 0% | –
2 | CCOC(Cn1cnc2c(c(-c3ncc([N+](=O)[O-])n3C)nn2C)c1=N)OCC [Example 14, 4-Imino-1-methyl-3-(1-methyl-5-nitroimidazol-2-yl)-1H-pyrazolo-[3,4-d]pyrimidine-5(4H)-acetaldehyde, diethyl acetal] | 0% | 20% | 40% | –
3 | Cn1c([N+](=O)[O-])cnc1-c1nn(C)c2ncn(Cc3ccncc3)c(=N)c12 [Example 8k, 4,5-dihydro-4-imino-1-methyl-3-(1-methyl-5-nitroimidazol-2-yl)-5-(4-pyridylmethyl)-1H-pyrazolo[3,4-d]pyrimidine diphosphate] | – | – | – | MIC [2]: 0.78 µg/mL; MIC [3, 8]: 50 µg/mL
4 | Cn1c([N+](=O)[O-])cnc1-c1nn(C)c2ncnc(NCC(=O)O)c12 [Example 6, N-[1-Methyl-3-(1-methyl-5-nitroimidazol-2-yl)-1H-pyrazolo[3,4-d]pyrimidin-4-yl]glycine] | 20% | 20% | 20% | –
5 | Cn1c([N+](=O)[O-])cnc1-c1nn(C)c2ncnc(NN)c12.O=P(O)(O)O [Example 9a, 4-hydrazino-1-methyl-3-(1-methyl-5-nitroimidazol-2-yl)-1H-pyrazolo[3,4-d]-pyrimidine monophosphate] | – | – | – | MIC [2]: 0.78 µg/mL; MIC [3, 8]: 25 µg/mL
6 | CCCn1cnc2c(c(-c3ncc([N+](=O)[O-])n3C)nn2C)c1=N.O=[N+]([O-])O [Example 5b, 4,5-Dihydro-4-imino-1-methyl-3-(1-methyl-5-nitroimidazol-2-yl)-5-propyl-1H-pyrazolo[3,4-d]pyrimidine mononitrate] | – | – | – | MIC [4]: ≤ 1.56 µg/mL; inhibition of growth of the treponema [4]: inhibited growth of the treponema at each of the levels tested; MIC [2]: 3.12 µg/mL; MIC [3]: 25 µg/mL
7 | CC(=O)Nc1ncnc2c1c(-c1ncc([N+](=O)[O-])n1C)nn2C [Example 11, N-[1-Methyl-3-(1-methyl-5-nitroimidazol-2-yl)-1H-pyrazolo[3,4-d]-pyrimidin-4-yl]acetamide] | 0% | 0% | 20% | –
8 | Cl.Cn1c([N+](=O)[O-])cnc1-c1nn(C)c2ncnc(N)c12 [Example 4a, 4-amino-1-methyl-3-(1-methyl-5-nitroimidazol-2-yl)-1H-pyrazolo[3,4-d]pyrimidine hydrochloride] | – | – | – | Survival ratio (mice surviving / mice tested) [1, 5]: 7/10; Survival ratio (mice surviving / mice tested) [1, 6]: 7/10; Survival ratio (mice surviving / mice tested) [1, 7]: 7/10
9 | Cn1c([N+](=O)[O-])cnc1-c1nn(C)c2ncnc(NN)c12 [Example 9, 4-Hydrazino-1-methyl-3-(1-methyl-5-nitroimidazol-2-yl)-1H-pyrazolo[3,4-d]pyrimidine] | 100% | 80% | 90% | –
10 | CCN(CC)CCn1cnc2c(c(-c3ncc([N+](=O)[O-])n3C)nn2C)c1=N [Example 8a, 5-[2-(Diethylamino)ethyl]-4,5-dihydro-4-imino-1-methyl-3-(1-methyl-5-nitroimidazol-2-yl)-1H-pyrazolo[3,4-d]-pyrimidine] | 40% | 20% | 100% | –
11 | CCn1cnc2c(c(-c3ncc([N+](=O)[O-])n3C)nn2C)c1=N [Example 7, 5-Ethyl-4,5-dihydro-4-imino-1-methyl-3-(1-methyl-5-nitroimidazol-2-yl)-1H-pyrazolo[3,4-d]pyrimidine] | 40% | 70% | 100% | responders at 2.5 mg/kg [1, 9]: 20%; responders at 2.5 mg/kg [1, 10]: 40%; responders at 2.5 mg/kg [1, 11]: 60%
12 | Cn1c([N+](=O)[O-])cnc1-c1nn(C)c2ncn(Cc3ccncc3)c(=N)c12 [Example 8d, 4,5-Dihydro-4-imino-1-methyl-3-(1-methyl-5-nitroimidazol-2-yl)-5-(4-pyridylmethyl)-1H-pyrazolo[3,4-d]pyrimidine] | 100% | 100% | 100% | –
13 | Cn1c([N+](=O)[O-])cnc1-c1nn(C)c2ncn(CCN3CCOCC3)c(=N)c12 [Example 15b, 4,5-Dihydro-4-imino-1-methyl-3-(1-methyl-5-nitroimidazol-2-yl)-5-(2-morpholinoethyl)-1H-pyrazolo[3,4-d]-pyrimidine diphosphate] | – | – | – | MIC ([4]; blood agar plates, about 36° C., about 4 days): ≤ 1.56 µg/mL; inhibition of growth of the treponema [4]: inhibited growth of the treponema at each of the levels tested; MIC [2]: 1.56 µg/mL; MIC [3, 8]: 50 µg/mL
14 | Cn1c([N+](=O)[O-])cnc1-c1nn(C)c2ncnc(N)c12 [Example 4, 4-Amino-1-methyl-3-(1-methyl-5-nitroimidazol-2-yl)-1H-pyrazolo-[3,4-d]pyrimidine] | – | 50% | 50% | Survival ratio (mice surviving / mice tested) [1, 5]: 4/10
15 | CCCn1cnc2c(c(-c3ncc([N+](=O)[O-])n3C)nn2C)c1=N [Example 5, 4,5-Dihydro-4-imino-1-methyl-3-(1-methyl-5-nitroimidazol-2-yl)-5-propyl-1H-pyrazolo[3,4-d]pyrimidine] | 30% | 60% | 90% | –
16 | CN(C)CCn1cnc2c(c(-c3ncc([N+](=O)[O-])n3C)nn2C)c1=N.Cl.Cl [Example 8g, 5-[2-(dimethylamino)-ethyl]-4,5-dihydro-4-imino-1-methyl-3-(1-methyl-5-nitroimidazol-2-yl)-1H-pyrazolo[3,4-d]pyrimidine dihydrochloride] | – | – | – | Survival ratio (mice surviving / mice tested) [1, 9]: 2/10; Survival ratio (mice surviving / mice tested) [1, 10]: 6/10; Survival ratio (mice surviving / mice tested) [1, 11]: 10/10; Survival ratio (mice surviving / mice tested) [1, 5]: 7/10; Survival ratio (mice surviving / mice tested) [1, 6]: 9/10; Survival ratio (mice surviving / mice tested) [1, 7]: 10/10
